In US20260152503A1, “SPIROBICYCLIC COMPOUNDS” (ACERAND THERAPEUTICS (HONG KONG) LIMITED, priority 2022, published 2026):

Legend:
FGFR2 = biological target: T1, FGFR2 (Homo sapiens, UniProt P21802, K310R/N549K); test: pERK potency assay (In Cell ELISA), AN3CA cells; format: cell-based; details: for IC50: pERK, AN3CA (FGFR2/k310R, N549K) cells, 3 hours; for FGFR1 IC50/FGFR2 IC50 / FGFR3 IC50/FGFR2 IC50: selectivity ratio, pERK potency; for FGFR1 IC50/FGFR2 IC50: FGFR2 relative to FGFR1; for FGFR3 IC50/FGFR2 IC50: FGFR2 relative to FGFR3
T1 construct: in FGFR aberrations of AN3CA (FGFR2/k310R, N549K); host or cells: AN3CA
T1 sequence (P21802 22-821 K310R/N549K): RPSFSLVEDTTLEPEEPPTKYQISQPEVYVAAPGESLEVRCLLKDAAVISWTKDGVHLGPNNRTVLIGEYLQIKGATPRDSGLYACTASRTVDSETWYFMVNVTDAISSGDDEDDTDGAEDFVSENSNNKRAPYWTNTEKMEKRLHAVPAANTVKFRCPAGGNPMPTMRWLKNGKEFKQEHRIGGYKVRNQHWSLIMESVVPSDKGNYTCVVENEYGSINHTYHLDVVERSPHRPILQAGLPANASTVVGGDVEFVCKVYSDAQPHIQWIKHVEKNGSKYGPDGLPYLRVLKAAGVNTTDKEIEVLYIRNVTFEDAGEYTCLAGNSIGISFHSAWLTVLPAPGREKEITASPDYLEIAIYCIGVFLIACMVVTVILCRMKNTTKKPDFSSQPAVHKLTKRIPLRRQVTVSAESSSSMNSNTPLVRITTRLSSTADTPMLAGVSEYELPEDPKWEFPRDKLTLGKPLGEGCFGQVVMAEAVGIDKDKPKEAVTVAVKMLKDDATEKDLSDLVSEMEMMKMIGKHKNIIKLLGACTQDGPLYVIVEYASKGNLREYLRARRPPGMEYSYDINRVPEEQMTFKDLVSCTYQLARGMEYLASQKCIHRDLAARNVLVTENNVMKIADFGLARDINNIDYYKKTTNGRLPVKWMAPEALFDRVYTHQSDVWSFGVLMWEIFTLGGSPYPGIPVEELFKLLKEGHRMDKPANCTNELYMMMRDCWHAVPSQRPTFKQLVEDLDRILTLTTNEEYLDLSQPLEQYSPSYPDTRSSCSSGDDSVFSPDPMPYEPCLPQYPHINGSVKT
Procedure, shortened: (§1)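 IC50 values come from a 4-parameter sigmoidal fit of in-cell ELISA chemiluminescent pERK (Thr202/Tyr204) signal. Treatment lasted 3 h at 37 °C, final 0.000038 to 10 μM in 4-fold steps, using AN3CA (mutant FGFR2), DMS114 (amplified FGFR1) and RT112 (FGFR3 overexpression/fusion) cells.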

KATO III = test: 2D cell proliferation assay, KATO III; format: cell-based; details: Homo sapiens, 96 hours, CTG, read-out: Cell Line, IC50 KATO III
Method: (§2) Low IC50 values are indicative of the high potency of the FGFR inhibitor compounds in this assay selling. […] Cell proliferation assays are performed in two-dimensional (2D)) anchorage-dependent conditions in 96 well plates (Corning® Black/Clear flat Bottom, Cat #3603) with the following cell lines: • Ba/F3 FGFR2-BICC1 (human […]): Mouse Ba/F3 cell line stably expressed exogenous human FGFR2-BICC1 fusion gene bearing V546F mutation in FGFR2 Ba/F3; • FGFR2-BICC1 (human FGFR2/[…]): Mouse Ba/F3 cell line stably expressed exogenous human FGFR2-BICC1 fusion gene bearing N549K mutation in FGFR2; • Snu-16: human gastric cancer cell with FGFR2 amplification; • KATO III: human gastric cancer cell with FGFR2 amplification; • AN3CA: Human endometrial cancer with FGFR2 mutation (k310R, N549K); • MFM-223: Human breast cancer with FGFR1/2 amplification; • MFE-296: Human endometrial cancer with FGFR2 mutation (N549K); • MFE-280: Human endometrial cancer with FGFR2 mutation ([…]); • NCI-H1581: human non-small cell lung cancer with FGFR1 amplification; • KG-1a: Acute myelogenous leukemia with FGFR1OP2-FGFR1 translocation; • DMS114: human small cell carcinoma of the lung with FGFR1 amplification; • RT112: human bladder cancer with FGFR3 overexpression/FGFR3-TACC3 fusion; • SW780: human bladder cancer with FGFR3 overexpression/FGFR3-BALAP2L1 fusion; • Hep3B: Liver cancer with FGF19 amplification (FGFR4 ligand); • AGS: Human gastric adenocarcinoma with Kras G12D mutation and FGFR wild type; • PC-9: human non-small cell lung cancer (NSCLC) with wild-type FGFR and an EGFR del19 mutation; or • H1975: human non-small cell lung cancer (NSCLC) with wild-type FGFR and EGFR L858R/T790M mutation.
(§3) Cell lines are purchased from the American Type Culture Collection (ATCC) or Sigma. All cell lines are maintained in RPMI-1640 or DMEM supplemented with 10% heat-inactivated fetal bovine serum.
(§4) Cells growing in the log phase are detached with Gibco™ TrypLE™ Express Enzyme and plated in 96 well plate at 3000 to 5000 cells/well in 100 μl of media. After overnight incubation at 37° C., 5% CO2 incubator, cells are treated with compounds (50 uL/well) at the final concentrations spanning from 0.000038 uM to 10 μM (4-fold serial dilution for total of 10 points). Cells are incubated at 37° C., 5% CO2, and 95% humidity incubator for 96 hours. At the end of incubation 2D CTG reagent from Promega was added to each well according to vendors recommendation and mixed for 10 min in dark. The luminescence signals are determined with a Biotek™ plate reader. Data is fitted using a sigmoidal curve analysis program (GraphPad Prism®) with variable hill slope and IC50 is determined.

FGFR1 = biological target: T2, FGFR1 (Homo sapiens, UniProt P11362); test: pERK potency assay (In Cell ELISA), DMS114 cells; format: cell-based; details: DMS114 (FGFR1 amplification) cells, 3 hours
T2 construct: DMS114 (FGFR1 amplification); host or cells: DMS114
T2 sequence (P11362 22-822): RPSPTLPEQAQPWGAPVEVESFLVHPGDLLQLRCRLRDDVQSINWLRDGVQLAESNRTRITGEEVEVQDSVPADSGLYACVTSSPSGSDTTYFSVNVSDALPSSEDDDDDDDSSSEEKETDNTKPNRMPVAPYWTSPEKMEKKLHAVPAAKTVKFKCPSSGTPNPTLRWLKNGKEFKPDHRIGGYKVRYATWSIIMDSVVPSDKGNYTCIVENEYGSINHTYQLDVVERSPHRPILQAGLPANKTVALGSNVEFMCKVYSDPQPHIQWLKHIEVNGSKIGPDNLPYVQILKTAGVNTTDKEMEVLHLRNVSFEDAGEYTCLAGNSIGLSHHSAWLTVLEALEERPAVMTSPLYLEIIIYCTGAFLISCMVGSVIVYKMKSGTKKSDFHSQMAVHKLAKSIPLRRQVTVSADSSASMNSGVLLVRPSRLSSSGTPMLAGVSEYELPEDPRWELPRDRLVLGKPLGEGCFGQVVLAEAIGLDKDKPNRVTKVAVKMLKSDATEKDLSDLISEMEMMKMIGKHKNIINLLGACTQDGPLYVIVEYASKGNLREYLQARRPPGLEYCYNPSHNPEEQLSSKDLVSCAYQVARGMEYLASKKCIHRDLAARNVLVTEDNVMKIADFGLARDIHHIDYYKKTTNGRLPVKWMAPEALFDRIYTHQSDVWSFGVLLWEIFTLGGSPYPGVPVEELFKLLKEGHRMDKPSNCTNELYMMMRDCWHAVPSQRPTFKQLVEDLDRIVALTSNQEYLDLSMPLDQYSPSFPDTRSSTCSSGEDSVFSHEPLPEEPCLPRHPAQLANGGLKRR
Procedure, shortened: as §1

AN3CA = test: 2D cell proliferation assay, AN3CA; format: cell-based; details: Homo sapiens, AN3-CA, 96 hours, CTG, read-out: Cell Line, IC50 AN3CA
Method: as §2, §3, §4

FGFR3 = biological target: T3, FGFR3 (Homo sapiens, UniProt P22607); test: pERK potency assay (In Cell ELISA), RT112 cells; format: cell-based; details: RT112 (FGFR3 overexpression/FGFR3-TACC3 fusion) cells, 3 hours
T3 construct: RT112 (FGFR3 overexpression/FGFR3-TACC3 fusion); host or cells: RT112; the other entry of the earlier key: TACC3 (Q9Y6A5, Transforming acidic coiled-coil-containing protein 3)
Procedure, shortened: as §1

SNU-16 = test: 2D cell proliferation assay, SNU-16; format: cell-based; details: Homo sapiens, 96 hours, CTG, read-out: Cell Line, IC50 SNU-16
Method: as §2, §3, §4

Ba/F3 FGFR2-V564F = biological target: T4, Ba/F3 FGFR2-V564F (Homo sapiens, UniProt P21802, V564F, cells depend on it); test: 2D cell proliferation assay, Ba/F3 FGFR2-V564F; format: cell-based, mouse; details: 96 hours, CTG, read-out: Cell Line, IC50 Ba/F3 FGFR2-V564F
T4 construct: fused on or other part: Q9H694 (Protein bicaudal C homolog 1)
T4 sequence (P21802 whole entry V564F, the tested form may be a part): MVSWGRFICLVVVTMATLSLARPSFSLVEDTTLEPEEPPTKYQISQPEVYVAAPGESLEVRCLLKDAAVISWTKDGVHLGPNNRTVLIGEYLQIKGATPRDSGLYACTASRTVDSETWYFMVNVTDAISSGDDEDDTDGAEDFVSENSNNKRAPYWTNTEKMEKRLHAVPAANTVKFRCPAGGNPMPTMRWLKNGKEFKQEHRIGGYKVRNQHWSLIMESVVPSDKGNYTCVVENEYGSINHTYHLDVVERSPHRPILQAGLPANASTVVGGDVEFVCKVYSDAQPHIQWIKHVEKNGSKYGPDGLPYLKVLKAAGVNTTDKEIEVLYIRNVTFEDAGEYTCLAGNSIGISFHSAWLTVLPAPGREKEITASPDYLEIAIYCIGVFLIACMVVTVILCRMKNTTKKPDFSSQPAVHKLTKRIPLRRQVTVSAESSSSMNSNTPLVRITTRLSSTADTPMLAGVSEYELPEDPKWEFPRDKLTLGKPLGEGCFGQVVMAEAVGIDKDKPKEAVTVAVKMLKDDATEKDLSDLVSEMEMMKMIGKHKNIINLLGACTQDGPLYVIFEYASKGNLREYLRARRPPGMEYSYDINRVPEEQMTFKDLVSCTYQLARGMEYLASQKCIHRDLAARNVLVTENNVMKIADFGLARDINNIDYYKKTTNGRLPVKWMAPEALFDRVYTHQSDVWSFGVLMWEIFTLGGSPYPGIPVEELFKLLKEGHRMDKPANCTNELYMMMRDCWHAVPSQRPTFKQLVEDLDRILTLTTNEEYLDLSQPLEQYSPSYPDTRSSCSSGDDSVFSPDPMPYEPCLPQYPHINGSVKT
Method: as §2, §3, §4

Ba/F3 FGFR2-N549K = biological target: T5, Ba/F3 FGFR2-N549K (Homo sapiens, UniProt P21802, N549K, cells depend on it); test: 2D cell proliferation assay, Ba/F3 FGFR2-N549K; format: cell-based, mouse; details: 96 hours, CTG, read-out: Cell Line, IC50 Ba/F3 FGFR2-N549K
T5 construct: fused on or other part: Q9H694 (Protein bicaudal C homolog 1)
T5 sequence (P21802 whole entry N549K, the tested form may be a part): as the sequence (P21802 whole entry V564F, the tested form may be a part) above, with N549K, F564V counted along it
Method: as §2, §3, §4

IC50 (FGFR2)	IC50 (FGFR1)	IC50 (FGFR3)	IC50 (SNU-16)	GI50 (Ba/F3 FGFR2-V564F)	GI50 (Ba/F3 FGFR2-N549K)	Compound	FGFR1 IC50/FGFR2 IC50 (FGFR2)	FGFR3 IC50/FGFR2 IC50 (FGFR2)	IC50 (KATO III)	IC50 (AN3CA)
1 to 10 nM	> 100 nM	> 100 nM	1 to 10 nM	–	–	C=CC(=O)N1CCC2(CC=C(c3c(-c4ccc(Oc5ncccn5)cc4)c4c(N)ncnc4n3C)CC2)CC1 [Example 4, 1-(9-(4-amino-7-methyl-5-(4-(pyrimidin-2-yloxy)phenyl)-7H-pyrrolo[2,3-d]pyrimidin-6-yl)-3-azaspiro[5.5]undec-8-en-3-yl)prop-2-en-1-one]	F (a selectivity ratio greater than 50 but less than or equal to 150)	G (a selectivity ratio greater than 150 but less than or equal to 500)	10 to 30 nM	30 to 100 nM
≤ 1 nM	30 to 100 nM	> 100 nM	1 to 10 nM	–	–	C=CC(=O)N1CCC2(CC=C(c3c(-c4ccc(OC)cc4)c4c(N)ncnc4n3C)CC2)CC1 [Example 8, 1-(9-(4-amino-5-(4-methoxyphenyl)-7-methyl-7H-pyrrolo[2,3-d]pyrimidin-6-yl)-3-azaspiro[5.5]undec-8-en-3-yl)prop-2-en-1-one]	G (a selectivity ratio greater than 150 but less than or equal to 500)	H (a selectivity ratio greater than 500 but less than or equal to 1000)	1 to 10 nM	1 to 10 nM
1 to 10 nM	> 100 nM	> 100 nM	10 to 30 nM	–	–	C=CC(=O)N1CCC2(CC=C(c3c(-c4cccc(F)c4)c4c(N)ncnc4n3C)CC2)CC1 [Example 10, 1-(9-(4-amino-5-(3-fluorophenyl)-7-methyl-7H-pyrrolo[2,3-d]pyrimidin-6-yl)-3-azaspiro[5.5]undec-8-en-3-yl)prop-2-en-1-one]	G (a selectivity ratio greater than 150 but less than or equal to 500)	G (a selectivity ratio greater than 150 but less than or equal to 500)	10 to 30 nM	30 to 100 nM
1 to 10 nM	> 100 nM	> 100 nM	10 to 30 nM	30 to 100 nM	1 to 10 nM	C=CC(=O)N1CCC2(CC=C(c3c(-c4ccc(F)cc4)c4c(N)ncnc4n3C)CC2)CC1 [Example 11, 1-(9-(4-amino-5-(4-fluorophenyl)-7-methyl-7H-pyrrolo[2,3-d]pyrimidin-6-yl)-3-azaspiro[5.5]undec-8-en-3-yl)prop-2-en-1-one]	I (a selectivity ratio greater than 1000 but less than or equal to 2000)	J (a selectivity ratio greater than 2000)	30 to 100 nM	30 to 100 nM
1 to 10 nM	> 100 nM	> 100 nM	10 to 30 nM	–	–	C=CC(=O)N1CCC2(CC=C(c3c(-c4cccc(OC)c4)c4c(N)ncnc4n3C)CC2)CC1 [Example 16, 1-(9-(4-amino-5-(3-methoxyphenyl)-7-methyl-7H-pyrrolo[2,3-d]pyrimidin-6-yl)-3-azaspiro[5.5]undec-8-en-3-yl)prop-2-en-1-one]	F (a selectivity ratio greater than 50 but less than or equal to 150)	G (a selectivity ratio greater than 150 but less than or equal to 500)	10 to 30 nM	30 to 100 nM
≤ 1 nM	30 to 100 nM	> 100 nM	1 to 10 nM	–	–	C=CC(=O)N1CCC2(CC=C(c3c(-c4ccc(OC(F)F)cc4)c4c(N)ncnc4n3C)CC2)CC1 [Example 17, 1-(9-(4-amino-5-(4-(difluoromethoxy)phenyl)-7-methyl-7H-pyrrolo[2,3-d]pyrimidin-6-yl)-3-azaspiro[5.5]undec-8-en-3-yl)prop-2-en-1-one]	G (a selectivity ratio greater than 150 but less than or equal to 500)	G (a selectivity ratio greater than 150 but less than or equal to 500)	1 to 10 nM	10 to 30 nM
≤ 1 nM	> 100 nM	> 100 nM	1 to 10 nM	1 to 10 nM	1 to 10 nM	C=CC(=O)N1CCC2(CC=C(c3c(-c4ccc(OC5CC5)cc4)c4c(N)ncnc4n3C)CC2)CC1 [Example 18, 1-(9-(4-amino-5-(4-cyclopropoxyphenyl)-7-methyl-7H-pyrrolo[2,3-d]pyrimidin-6-yl)-3-azaspiro[5.5]undec-8-en-3-yl)prop-2-en-1-one]	G (a selectivity ratio greater than 150 but less than or equal to 500)	G (a selectivity ratio greater than 150 but less than or equal to 500)	1 to 10 nM	10 to 30 nM
1 to 10 nM	> 100 nM	> 100 nM	1 to 10 nM	1 to 10 nM	1 to 10 nM	C=CC(=O)N1CCC2(CC=C(c3c(-c4ccc(OC5CC5)nc4)c4c(N)ncnc4n3C)CC2)CC1 [Example 22, 1-(9-(4-amino-5-(6-cyclopropoxypyridin-3-yl)-7-methyl-7H-pyrrolo[2,3-d]pyrimidin-6-yl)-3-azaspiro[5.5]undec-8-en-3-yl)prop-2-en-1-one]	G (a selectivity ratio greater than 150 but less than or equal to 500)	G (a selectivity ratio greater than 150 but less than or equal to 500)	1 to 10 nM	10 to 30 nM
≤ 1 nM	> 100 nM	> 100 nM	1 to 10 nM	30 to 100 nM	1 to 10 nM	C=CC(=O)N1CCC2(CC=C(c3c(-c4ccc(OC(F)F)nc4)c4c(N)ncnc4n3C)CC2)CC1 [Example 29, 1-(9-(4-amino-5-(6-(difluoromethoxy)pyridin-3-yl)-7-methyl-7H-pyrrolo[2,3-d]pyrimidin-6-yl)-3-azaspiro[5.5]undec-8-en-3-yl)prop-2-en-1-one]	H (a selectivity ratio greater than 500 but less than or equal to 1000)	J (a selectivity ratio greater than 2000)	1 to 10 nM	–
